The structures appear in SMILES notation.

Consider `COc1cccc(CC(=O)O)c1OCCCc1cn(-c2ccc(C(C)=O)cn2)nc1C(C)C`, for which the melting point lay within 148 to 149 °C.
For `Nc1cc(N)c(-c2ccc([N+](=O)[O-])cc2-c2cccc(Cl)c2Cl)cn1` the value was 237 to 239 °C.
For `O=C(O)CN(C(=O)CCS)[C@H]1CC[C@H](c2ccccc2)CC1` the value was 125 to 130 °C.
`Nc1nc2ccccc2n1-c1ccc(I)cc1`: the melting point lay within 212 to 214 °C.
Compound `COC(=O)c1ccc(C(O)c2cc3cc(C(F)(F)F)ccc3n2S(=O)(=O)c2ccc3c(c2)N(C)CCO3)cc1` (configuration not stated) displayed a melting point of 80 °C.
For `Cc1ccc2c(C3CN4CCC3CC4)c(C)[nH]c2c1` (configuration not stated) the value was 237 to 238 °C; for `O=C(CCc1cc2ccccc2s1)N1C(=O)OC[C@@H]1Cc1ccccc1`, 119 to 122 °C.
For `CCOC(=O)Cc1ccc(-c2ccc(F)cc2F)c(F)c1` the value was 50 to 52 °C.
The figure for `CC(=O)c1cc(N=C=O)cc(C(C)=O)c1` is 71 °C; for `COc1ccc(C=CC(=O)O)cc1-c1cc2c(cc1OCCCCCCCO)C(C)(C)CCC2(C)C` it is 105 to 107 °C.
Take `NC(CCCBr)C(=O)c1ccccc1` (configuration not stated): the melting point was 74 to 76 °C.
The figure for `Cc1cc(C(O)(c2ccc(Cl)cc2)C(F)(F)F)ccc1N` (configuration not stated) is 157 to 160 °C; for `COC(=O)c1cc(C(=O)OC)n(-c2ccc(Cl)cc2C(=O)c2ccccc2)n1` it is 118 to 120 °C; for `CCCN(CCC)c1c(CC)nn2c(-c3ccc(OC)cc3Cl)cccc12` it is 73.6 to 76 °C.
The figure for `N#Cc1ccc(NN)cc1` is 84 to 87 °C; for `Cc1cnc(-c2c(F)cccc2F)nn1` it is 90 to 93 °C.
`CC1SC(=O)NN=C1c1ccc2c(c1)C(=Cc1ccccc1O)C(=O)N2` (configuration not stated): the melting point was found to be 233 °C.
For `CSc1ncc2cc(Oc3ccccc3F)c(=O)n(C)c2n1`, the melting point fell in the range of 234 to 236 °C.
For `NCc1ccccc1C(F)(F)C(F)(F)c1ccc(F)cc1` the value was 64 to 66 °C; for `CCOC(=O)c1ccc(N=C(Nc2ccc(C(=O)OCC)cc2)c2cccc(Cl)c2)cc1`, 160 to 170 °C; for `OCC1COC(c2c(F)cccc2F)=N1` (configuration not stated), 82 °C.
Compound `CCCCCCCCCCCCCCCCCCOc1cc(OCCCOc2ccc(S(C)(=O)=O)cc2)cc(C(=O)O)c1` yielded a melting point of 110 to 111 °C.
Compound `CCC(COC(=O)c1ccc[nH]1)C1CN(C)C2Cc3cn(C)c4cccc(c34)C2(OC)C1` (configuration not stated) had a melting point of 96 to 98 °C.
Compound `CC(C)(C)n1ncc(OCc2ccc(OCC(F)(F)C(F)F)nc2)c(Cl)c1=O` registered a melting point of 112 to 118 °C.
The figure for `CCCCN(CCCC)Cc1nc(-c2ncn3c2CN(C)C(=O)c2cc(F)ccc2-3)no1` is 137 to 140 °C; for `CCOC(=O)C1=C(C)NC(C(F)F)=C(C(=O)OCC)C1c1cccc([N+](=O)[O-])c1` (configuration not stated) it is 148 to 149 °C; for `Cc1cc(C)c(Nc2nc(C)ccc2S(=O)(=O)c2ccc(OCc3ccccc3)cc2)c(C)c1` it is 158 to 160 °C.
The figure for `Cc1nn(C)c(N)c1C(=O)Nc1cccc(Cl)c1` is 87 to 92 °C; for `O=c1c2ccccc2oc2cc(OCC3CO3)ccc12` (configuration not stated) it is 157 to 158 °C.
The figure for `CCC1(CC)c2cc(-c3cc4ccccc4[nH]3)ccc2-c2ccc(N(c3ccccc3)c3ccccc3)cc21` is 102 to 104 °C; for `CCCCCCCCCCNC(=O)c1ccc([N+](=O)[O-])cc1` it is 89 to 91 °C.
`COc1ccc2c(c1[N+](=O)[O-])C(=O)CC2`: the melting point was 155 to 158 °C.
The compound `CC(=O)NC[C@H]1CN(c2ccc(C(=O)c3cnc4c(Cl)cc(Cl)cn34)cc2)C(=O)O1` had a melting point of 228 to 229 °C.
In turn, `COc1cc(O)nc2cc(-c3cc(C)c(O)c(C)c3)[nH]c(=O)c12` yielded a melting point above 330 °C.
Compound `CCOCCOc1ccc(COc2ccc3c(c2)C=C(C(=O)O)CCS3(=O)=O)cc1` gave a melting point of 256 to 258 °C.
The figure for `CC(=O)Oc1ccc(CN2C(=O)C(=O)c3ccccc32)cc1` is 159 to 161 °C; for `Cc1ccc2sc3cc(CC(=O)O)ccc3c2c1` it is 185 to 187 °C.
The figure for `Cc1scc2c1N(C(=O)NCCN1CCC(CCCN3CCCCC3)CC1)c1ccccc1NC2=O` is 170 to 171 °C; for `CCOC(=O)C(=CNc1ccc(F)c(Cl)c1)C(=O)c1ccccc1Cl` it is 96 to 102 °C; for `CC(C)(C)C(O)c1ccc(C(=O)O)cc1` (configuration not stated) it is 162 to 163 °C.
Compound `COC(=O)c1scc(Cl)c1NC(C)=O` came in with a melting point of 142 to 147 °C.
For `O=C1OC(c2ccccc2)=NC1=Cc1ccc(Oc2ccccc2)cc1` the value was 156 to 158 °C; for `O=C1C=CC(O)(c2cc3ccccc3n2S(=O)(=O)c2ccccc2)C=C1`, 170 to 172 °C; for `O=C(Oc1ccccc1)N1C(=O)[C@H](O)[C@@H]1c1ccccc1`, 125 to 126 °C.
Consider `CCc1c(-c2ccc(OC)cc2)c2c(C(=O)N(C)CCN(C)C)c(C(=O)O)c3cc(OC)cc1n32`, for which the melting point was in the range of 221 to 223 °C.
The compound `O=C(NCc1ccc(Cl)cc1)c1cn(CCN2CCCC2)c2sc(CN3CCOCC3)cc2c1=O` returned a melting point of 178 to 180 °C.
For `CCN(CC)C1CCCCC1Oc1ccc(Cc2c(-c3ccc(OCCN4CCCC4)cc3)sc3cc(O)ccc23)cc1` (configuration not stated) the value was 95 to 100 °C; for `O[C@@H]1[C@H](O)[C@H](O)CO[C@H]1n1c(Br)nc2ccc(Cl)cc21`, 100 °C.
Turning to `COc1cc2[nH]c(N(C)Cc3cccc(OCCO)c3)nc(=O)c2c(OC)c1OC`, the melting point is 146 to 148 °C.
For `COc1c(Cl)ccc(-c2cc(N)c(Cl)c(C(=O)N(C)OC)n2)c1F` the value was 159 to 162 °C; for `CS(=O)(=O)c1ccc(-n2nc(CNC(=O)Nc3ccc(OC(F)(F)F)cc3)cc2-c2ccccc2)cc1`, 153 to 156 °C.
In turn, `COC(=O)C1CCCN1S(=O)(=O)c1ccc(C)cc1` (racemic) gave a melting point of 93 °C.
For `CN1C2CCC(NC(=O)c3n[nH]c4ccccc34)C1CC2` (configuration not stated) the value was 222 to 224 °C; for `COc1c(F)c(C)c(F)c(OC)c1CO`, 80 to 81 °C; for `CSCCn1c2ccc(C)cc2c(=O)c2c1cnn2C`, 125 °C.
The figure for `CCCc1c(OCCCOc2ccc3ccccc3c2)ccc2c1OC(CCC(=O)O)(CCC(=O)O)CC2=O` is 158 °C; for `O=C1COCCOCC(=O)NCCSCCSCCN1` it is 145 °C.
For `CC(=O)N1CCC(C(C)(O)c2ccc(Cl)cc2)CC1` (configuration not stated) the value was 178 to 180 °C.
`O=C1CC(C(=O)NC(Cc2c[nH]cn2)C(=O)OCc2ccccc2)N1` (configuration not stated) showed a melting point of 196 to 199 °C.
For `COc1ccc(ON2CN=C(c3ccccc3F)O2)cc1` the value was 99.1 °C; for `CCOC(=O)C1CCc2c(n(C(=O)c3ccc(Cl)cc3)c3ccc(Cl)cc23)C1` (configuration not stated), 129 to 132 °C.
For `COc1ccc(-c2c(Cl)ncn2-c2ccc(S(C)(=O)=O)cc2)cc1F` the value was 196 °C; for `O=c1c(CCCc2cccnc2)cc2cccnc2n1-c1ccc2nsnc2c1`, 174 °C.
Take `CCCCCCCCCCCCc1c2c(=O)c3ccccc3c2c(CCCCCCCCCCCC)c2c(=O)c3ccccc3c12`: the melting point lay in the range of 123 to 124 °C.
The figure for `CSc1noc(-c2ccc(OCCCOc3ccccc3)cc2)c1C#N` is 121 to 123 °C; for `CCCn1c(=O)c2[nH]c(C3CCOC3)nc2n(CCC)c1=O` (configuration not stated) it is 177 to 178 °C.
The figure for `O=C1CCC2(CC1)Cc1ccccc1C2` is 91 to 94 °C; for `Cc1nn(C)c2cc(-c3nn(C(C)c4oc5ccccc5c(=O)c4-c4cccc(F)c4)c4ncnc(N)c34)ccc12` (configuration not stated) it is 270 to 272 °C; for `CCCCCCCCC=CC(=O)c1c(C)[nH]n(-c2ccccc2)c1=O` it is 40 °C.
Turning to `Cc1oc(-c2ccccc2)nc1Cc1cc2cc(C=O)ccc2o1`, the melting point was 116 to 118 °C.
The figure for `CCn1cc(S(=O)(=O)NC(=O)c2cn3cc(C(F)(F)F)cc(Cl)c3n2)c(C)n1` is 189 to 190 °C.
With `CCc1ccc(C(=O)O)c(O)n1`, the melting point lay in the range of 190 to 193 °C.
The figure for `CC(c1ccccc1N1CCCCC1)C(C(N)=O)c1ccc(C(=O)N2CCOCC2)cc1` (configuration not stated) is 148 to 150 °C; for `CC1(C)CCC(C)(C)c2cc(N(Cc3ccc(Cl)cc3)C(=O)Nc3ccc(C(=O)O)cc3)ccc21` it is 126 to 133 °C; for `Cc1c(-c2ccccc2)c(N2CC[C@H](N(C)C)C2)c2oc(N3CCOCC3)nc2c1C#N` it is 215 to 217 °C.
In turn, `CCNC(=O)c1ccc2oc(C(=O)C(Cc3ccccc3)NC(=O)Cn3c(-c4ccc(F)cc4)ncc(NC(=O)OCc4ccccc4)c3=O)nc2c1` (configuration not stated) showed a melting point of 256 to 261 °C.
`N#Cc1ccc(-c2cncc(OC3SCC(O)C(O)C3O)c2)cc1Cl` (configuration not stated) had a melting point of 202 to 204 °C.
The figure for `CCOC(=O)C(=O)Nc1nccs1` is 174 to 177 °C; for `COCn1ncc2cc(-c3nnc(SCc4ccc(OC)c(C(F)(F)F)c4)o3)ccc21` it is 158 to 159 °C.
For `COc1ccc(Br)c(OC)c1C#N` the value was 113 to 115 °C; for `CC(c1ccccc1)N1CC(CF)(C(=O)N(Cc2ccccc2)Cc2ccccc2)CC1=O` (configuration not stated), 113 to 115 °C.
For `NCC1Cc2cccc(-c3ccc4ccccc4c3)c2O1` (configuration not stated) the value was 135 to 140 °C; for `O=C1CCOc2ccc(Oc3ccccc3)cc21`, 58 to 60 °C.
In turn, `CCCc1c(OCCCOc2ccc(C(=O)C(=O)O)cc2)ccc(C(=O)OC)c1O` displayed a melting point of 86 to 87 °C.
For `Cc1cc(F)ccc1N(C)C(=O)c1cccc(S(=O)(=O)N(C)c2ccc(Br)cc2)c1` the value was 104 to 105 °C; for `O=C(CC(Cc1cccc2ccccc12)C(=O)O)NCCc1c[nH]c2ccccc12` (configuration not stated), 73 to 75 °C; for `Cc1ccc(C)c(CNc2cccc(S(=O)(=O)O)c2)c1`, above 275 °C.

The values are drawn from a melting point compilation (Tetko et al.; mined from patent text by program, amines drawn as free bases though some values may be those of a salt).
